In PubChem BioAssay (NCI):
“And” between values parts separate entries of the source, which are not always exact repeats. Identical values can stand only once.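 Values below derive from 48-hour exposures of cells grown in 96-well plates, with endpoints linearly interpolated between the two concentrations bracketing the appropriate inhibition level. GI50: concentration for 50% inhibition of growth. TGI marks complete inhibition of growth.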

Assays:
Assay in all cases: inhibition of tumour cell growth, NCI panel, 48 h
NCI-H226 lung = tested on: NCI-H226 lung
NCI-H23 lung = tested on: NCI-H23 lung
NCI-H460 lung = tested on: NCI-H460 lung
NCI-H522 lung = tested on: NCI-H522 lung
NCI/ADR-RES ovarian = tested on: NCI/ADR-RES ovarian
OVCAR-3 ovarian = tested on: OVCAR-3 ovarian
OVCAR-4 ovarian = tested on: OVCAR-4 ovarian
OVCAR-8 ovarian = tested on: OVCAR-8 ovarian
PC-3 prostate = tested on: PC-3 prostate
RPMI-8226 leukemia = tested on: RPMI-8226 leukemia
RXF 393 renal = tested on: RXF 393 renal
SF-268 CNS = tested on: SF-268 CNS
SF-295 CNS = tested on: SF-295 CNS
SF-539 CNS = tested on: SF-539 CNS
SK-MEL-2 melanoma = tested on: SK-MEL-2 melanoma
SK-MEL-28 melanoma = tested on: SK-MEL-28 melanoma
SK-MEL-5 melanoma = tested on: SK-MEL-5 melanoma
SK-OV-3 ovarian = tested on: SK-OV-3 ovarian
SN12C renal = tested on: SN12C renal
SNB-19 CNS = tested on: SNB-19 CNS
SNB-75 CNS = tested on: SNB-75 CNS
SR leukemia = tested on: SR leukemia
SW-620 colon = tested on: SW-620 colon
T-47D breast = tested on: T-47D breast
TK-10 renal = tested on: TK-10 renal
U251 CNS = tested on: U251 CNS
UACC-257 melanoma = tested on: UACC-257 melanoma
UACC-62 melanoma = tested on: UACC-62 melanoma
UO-31 renal = tested on: UO-31 renal

CS(=O)(=O)CCNCc1ccc(-c2ccc3ncnc(Nc4ccc(OCc5cccc(F)c5)c(Cl)c4)c3c2)o1
TGI (NCI-H226 lung): > 10 µM and > 100 µM and 86.7 µM | GI50 (NCI-H23 lung): > 10 µM and 7.82 µM and 10.4 µM | TGI (NCI-H23 lung): > 10 µM and > 100 µM and 31.1 µM | GI50 (NCI-H460 lung): > 10 µM and 4.11 µM and 8.98 µM | TGI (NCI-H460 lung): > 10 µM and > 29.3 µM and 48.7 µM | GI50 (NCI-H522 lung): 0.28 µM and 0.397 µM and 0.815 µM | TGI (NCI-H522 lung): > 10 µM and > 100 µM and 28.9 µM | GI50 (NCI/ADR-RES ovarian): 5.52 µM and 2.9 µM and 4.32 µM | TGI (NCI/ADR-RES ovarian): > 10 µM and > 100 µM and 50.3 µM | GI50 (OVCAR-3 ovarian): > 10 µM and 3.54 µM and 8.01 µM | TGI (OVCAR-3 ovarian): > 10 µM and 52.6 µM and 24.2 µM | GI50 (OVCAR-4 ovarian): > 10 µM and 7.8 µM and 6.78 µM | TGI (OVCAR-4 ovarian): > 10 µM and > 86.9 µM and 23.3 µM | GI50 (OVCAR-8 ovarian): 6.83 µM and 4.17 µM and 4.12 µM | TGI (OVCAR-8 ovarian): > 10 µM and > 100 µM and 32.2 µM | GI50 (PC-3 prostate): 9.68 µM and 5.3 µM and 4.45 µM | TGI (PC-3 prostate): > 10 µM and > 100 µM and 46.4 µM | GI50 (RPMI-8226 leukemia): 3.54 µM and 2.82 µM and 1.58 µM | TGI (RPMI-8226 leukemia): > 10 µM and > 29.4 µM and 7.05 µM | GI50 (RXF 393 renal): 8.01 µM and 2.05 µM and 1.79 µM | TGI (RXF 393 renal): > 10 µM and 4.5 µM and 7.05 µM | GI50 (SF-268 CNS): > 10 µM and 5.18 µM and 11.6 µM | TGI (SF-268 CNS): > 10 µM and > 100 µM and 43.4 µM | GI50 (SF-295 CNS): 6.84 µM and 5.32 µM and 3.54 µM | TGI (SF-295 CNS): > 10 µM and > 100 µM and 24.8 µM | GI50 (SF-539 CNS): > 10 µM and 9.11 µM and 7.5 µM | TGI (SF-539 CNS): > 10 µM and 98.1 µM and 29.9 µM | GI50 (SK-MEL-2 melanoma): > 10 µM and 2.46 µM and 5.9 µM | TGI (SK-MEL-2 melanoma): > 10 µM and 8.59 µM and 23.1 µM | GI50 (SK-MEL-28 melanoma): > 10 µM and 4.37 µM and 3.35 µM | TGI (SK-MEL-28 melanoma): > 10 µM and 16.5 µM and 18.9 µM | GI50 (SK-MEL-5 melanoma): 3.21 µM and 4.34 µM | TGI (SK-MEL-5 melanoma): 22.9 µM and 15.4 µM | GI50 (SK-OV-3 ovarian): 0.0681 µM and 0.0409 µM and 0.0441 µM | TGI (SK-OV-3 ovarian): > 10 µM and > 100 µM and 31.7 µM | GI50 (SN12C renal): > 10 µM and 9.1 µM | TGI (SN12C renal): > 10 µM and > 100 µM and 36.2 µM | GI50 (SNB-19 CNS): > 10 µM and 99.6 µM and 17.7 µM | TGI (SNB-19 CNS): > 10 µM and > 100 µM and 66.7 µM | GI50 (SNB-75 CNS): > 10 µM and 4.33 µM and 8.75 µM | TGI (SNB-75 CNS): > 10 µM and 35.5 µM and 44.2 µM | GI50 (SR leukemia): 2.75 µM and 2.57 µM and 2.28 µM | TGI (SR leukemia): > 10 µM and 5.8 µM and 11.3 µM | GI50 (SW-620 colon): > 10 µM and 1.94 µM and 3.82 µM | TGI (SW-620 colon): > 10 µM and 3.6 µM and 9.46 µM | TGI (T-47D breast): > 10 µM and > 100 µM and 37.6 µM | GI50 (TK-10 renal): 0.17 µM and 0.176 µM and 0.0385 µM | TGI (TK-10 renal): > 10 µM and > 100 µM and 11.2 µM | GI50 (U251 CNS): > 10 µM and 6.7 µM and 9.36 µM | TGI (U251 CNS): > 10 µM and > 100 µM and 24.9 µM | GI50 (UACC-257 melanoma): > 10 µM and 1.97 µM and 3.1 µM | TGI (UACC-257 melanoma): > 10 µM and 3.75 µM and 6.52 µM | GI50 (UACC-62 melanoma): > 10 µM and 6.68 µM and 9.22 µM | TGI (UACC-62 melanoma): > 10 µM and > 100 µM and 23.1 µM | GI50 (UO-31 renal): 2.39 µM and 0.807 µM and 1.08 µM | TGI (UO-31 renal): > 10 µM and > 33 µM and 26.2 µM
